According to ChEMBL document CHEMBL5726111, “Substituted pyridinone compounds as MEK inhibitors” (2017):

Biological target: Dual specificity mitogen-activated protein kinase kinase 1 (Homo sapiens, UniProt Q02750)
Test: LANCE Ultra Assay: The LANCE Ultra assay kit was purchased from PerkinElmer. The ULight-MBP peptide, Europium labeled Antibody and LANCE Detection buffer were purchased from PerkinElmer. The APT and dimethylsulfoxide were purchased from Sigma-Aldrich. The 5× Kinase buffer were purchased from Invitrogen. […] A Mek1 kinase assay (LANCE, PerkinElmer) was developed for supporting compound profiling and lead optimization. […] Then the phosphorylated Erk1 was able to phosphorylate ULight-MBP peptide (PerkinElmer). The phosphorylated peptide was detected by Europium-anti-phospho-MBP (PerkinElmer). […] After quenching the reaction with […], 2 nM Europium-anti-phospho-MBP was added to the reaction mixture and incubated for 60 min, followed by a detection using EnVision Multilabel Plate Reader (PerkinElmer).

Chain of Dual specificity mitogen-activated protein kinase kinase 1 (Q02750 whole entry): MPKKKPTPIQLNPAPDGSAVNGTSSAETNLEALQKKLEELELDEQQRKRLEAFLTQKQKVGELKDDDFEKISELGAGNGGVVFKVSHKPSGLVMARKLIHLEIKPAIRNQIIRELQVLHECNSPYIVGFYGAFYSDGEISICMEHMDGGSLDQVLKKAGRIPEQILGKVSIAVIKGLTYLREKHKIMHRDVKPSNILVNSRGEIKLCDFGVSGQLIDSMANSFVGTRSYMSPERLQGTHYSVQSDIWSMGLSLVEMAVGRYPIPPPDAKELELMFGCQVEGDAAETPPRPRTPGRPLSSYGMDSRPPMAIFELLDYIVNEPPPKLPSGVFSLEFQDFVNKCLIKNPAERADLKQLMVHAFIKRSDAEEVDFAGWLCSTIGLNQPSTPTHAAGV

IC50: < 500 nM
SMILES: Cn1c(Nc2ccc(I)cc2F)c(C(=O)NOCCO)c2c(c1=O)CC(C)(C)C2
